Laboratory results from US20120135519A1, “INDUCED DERIVATION OF SPECIFIC ENDODERM FROM hPS CELL-DERIVED DEFINITIVE ENDODERM” (Cellartis AB, priority 2009, published 2012).
“Also recorded” adds a separate entry of the source.

Legend:
Type in all cases: cell-based, human
PDX1 expression = test: FGF inhibition assays: PDX1 expression in FGF2-treated hPS cell-derived definitive endoderm; conditions: for PDX1 expression: with FGF2 (64 ng/ml), real-time PCR, fold vs control at day eleven
Description: FGF receptor inhibition assays were performed by adding SU5402 (Calbiochem; […]), LY294002 (Cell Signalling technology; 12.5 μM) and U1026 (Cell Signalling technology; 10 μM) to the medium following DE induction at day three. Control cultures were treated with equal volume of the diluent DMSO. Fresh medium supplemented with appropriate inhibitor was added daily. Two to three samples were taken from separate wells at different time points (day 9-12) for mRNA analysis for each independent experiment.
(§1) Total RNA was extracted with GenElute Mammalian total RNA kit (Sigma-Aldrich). Total RNA concentrations were measured with the NanoDrop ND-1000 spectrophotometer (Nanodrop Technologies). Reverse transcription was performed with SuperScript III, according to the manufacturer's instructions, using 2.5 μM random hexamer and 2.5 μM oligo(dT) (Invitrogen). Real-time PCR measurements were performed on an ABI PRISM 7900HT Sequence Detector System (Applied Biosystems). 20 μl reactions containing 10 μl SuperMix-UDG w/ROX, 400 nM of each primer, 0.125× SYBR Green I (all reagents from Invitrogen) were used. Primer sequences are available as supplementary data (FIG. 6). Formation of expected PCR products was confirmed by agarose gel electrophoresis and melting curve analysis. Gene expression data was normalized against ACTB or RPL7 expression. […] Real-time PCR data analysis was performed as described (Bustin, 2000; Stahlberg et al., 2005).

[1] = system: hPS cell derived definitive endoderm; test: Real-time PCR marker expression in hPS cell-derived definitive endoderm treated with FGF2
Description: hPS cells were seeded at a density of 12,000-24,000 cells/cm^2 and cultured until confluence. hPS cells were then differentiated into definitive endoderm as described previously (D'Amour et al., 2005). Briefly, cells were washed in PBS and treated with 100 ng/ml Activin A (R&D systems) and 25 ng/ml Wingless-type MMTV integration site family, member 3A (Wnt3a) in RPM! 1640 (GIBCO, Invitrogen) for three days in low serum (0-0.2% FBS).
(§2) At day three, cells were washed with PBS and human FGF2 (Invitrogen) was added at different concentrations (0-256 ng/ml according to specifications in the results) in a KO-DMEM based medium containing 1% Penicillin-streptomycin, 1% Glutamax, 1% non-essential amino acids, 0.1mM beta-Mercaptoethanol and 12% knockout serum replacement (all reagents from Invitrogen). Medium was changed every day. Control cultures without FGF2 were grown in parallel and cell morphology was monitored daily. At each time point, two to four biological replicates were taken for each independent experiment. More specifically, each well was divided into 4-5 equal pieces depending on the number of time points that were analyzed.
as §1

hPS cells = test: Immunofluorescence stainings of hPS cells treated with different FGF2 concentrations
Description: as §2
hPS cells were fixed in 4% paraformaldehyde for 15 minutes at room temperature and washed three times in PBS-T (0.1% Triton X-100 in PBS). Fixed cells were permeabilized with 0.5% Triton X-100 in PBS for 15 minutes and blocked in PBS-T supplemented with 5% normal donkey serum (Jackson lmmunoresearch) for 1 h at room temperature before they were incubated overnight at 4° C. with the following primary antibodies and dilutions: goat polyclonal antibody (pAb) anti-FOXA-2 (kind gift from Palle Serup; Santa Cruz Biotechnology; 1:200), Guinea Pig pAb anti-PDX-1 (Chris Wright; BetaCellBiologyConsortium; 1:1500), Goat anti-PDX-1 (Chris Wright; BetaCellBiologyConsortium; 1:1500), rabbit pAb anti-NKX6.1 (BetaCellBiologyConsortium; 20 1:4000), mouse anti-CDX-2 (kind gift from Jonathan Draper; Biogenex; 1:500), rabbit pAb anti-SOX-9 (Chemicon; 1:500), rabbit anti-HNF-6 (Santa Cruz Biotechnology; 1:400), mouse mAb-anti PH-3 (Cell Signaling technology; 1:50), rabbit pAb-anti MKi67 (Novocastra; 1:200), rabbit anti-S0X2 (kind gift from Palle Serup; Chemicon; 1:250), goat anti-albumin (Bethyl laboratories; 1:300). After overnight incubation cells were washed three times for 5 minutes in PBS; and incubated with corresponding fluorescent secondary antibodies (Alexa 488, Cy3 and 647; Jackson lmmunoresearch and Invitrogen; diluted according to the manufacturer's instructions) for 60 min in PBS-T supplemented with 5% serum at room temperature. Cell nuclei were visualized by 4′-6′diamidino-2-phenylindole (DAPI) (Sigma-Aldrich; 1:1000) incubation for 4 minutes. Immunofluorescence stainings were detected and analyzed by epifluorescence microscopy (Zeiss Axioplan 2).
The percentage of PDX1 positive cells was calculated using the Imaris Imaging software (Bitplane). Ten randomly selected fields were chosen for each parameter. Using DAPI staining the software estimated the total area of cells. The area of the PDX1 positive cells was calculated in the same manner. Finally, the percentage of PDX1 positive cells was calculated by dividing the area of PDX1 positive cells by the DAPI positive area. Raw data from realtime PCR measurements was exported from SDS 2.2.1 and analyzed by Microsoft Excel graph pad. All data were statistically analyzed by multivariate comparison (one-way ANOVA) with Bonferroni correction. All values are depicted as mean±standard error of the mean (SEM) and considered significant if p<0.05.

[2] = system: hPS-derived definitive endoderm; test: Differentiation towards PDX-1 positive pancreatic endoderm with a single FGF instead of FGF2; conditions: used alone instead of FGF2
[3] = all FGF2 treated samples (4-256 ng/ml), day eleven, vs control
[4] = higher FGF2 concentration, day eleven
[5] = increasing FGF2 concentrations, day eleven, vs control (Activin A only)

## O=c1cc(N2CCOCC2)oc2c(-c3ccccc3)cccc12 [LY294002]
PDX1 expression; inhibitor 12.5 μM
  PDX1 expression: no significant effect

## FGF2: human fibroblast growth factor 2 (Invitrogen) added to the culture medium
[1]; 4 ng/ml FGF2, day eleven, vs control (Activin A only)
  PDX1 mRNA expression: remained unchanged
[1]; 64 ng/ml FGF2, day eleven
  NKX6-1 mRNA expression: peak expression
  PDX1 mRNA expression: peak expression
[1]; 256 ng/ml FGF2, day eleven
  CDX2 mRNA expression: upregulated
  FGF10 mRNA expression: peak expression
  MNX1 mRNA expression: upregulated
  NKX2-1 mRNA expression: peak expression
  PTCH1 mRNA expression: peak expression
  SHH mRNA expression: peak expression
  SOX2 mRNA expression: significantly upregulated
  SPRY2 mRNA expression: peak expression
[1]; FGF2 range tested, day eleven
  CDX1 mRNA expression: remained unaffected
[1]; [3]
  NGN3 mRNA expression: upregulated
  SOX9 mRNA expression: upregulated
[1]; all samples, day eleven
  CPA1 mRNA expression: remained unchanged
  FOXA2 mRNA expression: remained unchanged
[1]; any FGF2 concentration
  CDX4 expression: not detected
[1]; [4]
  FGFR1 expression: upregulated
  FGFR2 expression: downregulated
  FGFR3 expression: upregulated
  FGFR4 expression: downregulated
[1]; increasing FGF2 concentrations (data not shown)
  thyroglobulin (TG) mRNA expression: downregulated
[1]; [5]
  ALB mRNA expression: downregulated
  HNF4A mRNA expression: downregulated
  ONECUT1 mRNA expression: downregulated
[1]; tested FGF2 concentrations, non-dose-dependent
  HHEX expression: only moderately reduced
hPS cells; 4 ng/ml FGF2
  ALB+ cells (ALB stainings): abundant
  PDX1+ cells: absent
hPS cells; 64 ng/ml FGF2, Imaris Imaging software, PDX1 area / DAPI area
  number of PDX1+ cells (percentage of PDX1 positive cells): 15-20%
hPS cells; 256 ng/ml FGF2
  ALB+ cells (ALB stainings): none
  number of CDX2+ cells: highest number
hPS cells; 32, 64 and 256 ng/ml FGF2
  PDX1+ cells: always present

## N#CC(=C(/N)Sc1ccccc1N)/C(C#N)=C(/N)Sc1ccccc1N [U1026]
PDX1 expression; inhibitor 10 μM
  PDX1 expression: diminished; also recorded: significantly reduced

## Cc1c[nH]c(/C=C2\C(=O)Nc3ccccc32)c1CCC(=O)O [SU5402]
PDX1 expression; SU5402 with FGF2 (64 ng/ml)
  number of PDX1 positive cells: significantly decreased
PDX1 expression; inhibitor 10 μM
  PDX1 expression: significantly reduced

B1: FGF4: fibroblast growth factor tested alone instead of FGF2 (protein, UniProt P08620 31-206, looked up)
Fibroblast growth factor 4: APTAPNGTLEAELERRWESLVALSLARLPVAAQPKEAAVQSGAGDYLLGIKRLRRLYCNVGIGFHLQALPDGRIGGAHADTRDSLLELSPVERGVVSIFGVASRFFVAMSSKGKLYGSPFFTDECTFKEILLPNNYNAYESYKYPGMFIALSKNGKTKKGNRVSPTMKVTHFLPRL
[2]
  induction of differentiation towards PDX-1 positive pancreatic endoderm: neither FGF4, FGF7 nor FGF10, when used alone instead of FGF2, is capable of inducing differentiation

B2: FGF7: fibroblast growth factor tested alone instead of FGF2 (protein, UniProt P21781 32-194, looked up)
Fibroblast growth factor 7: CNDMTPEQMATNVNCSSPERHTRSYDYMEGGDIRVRRLFCRTQWYLRIDKRGKVKGTQEMKNNYNIMEIRTVAVGIVAIKGVESEFYLAMNKEGKLYAKKECNEDCNFKELILENHYNTYASAKWTHNGGEMFVALNQKGIPVRGKKTKKEQKTAHFLPMAIT
[2]
  induction of differentiation towards PDX-1 positive pancreatic endoderm: neither FGF4, FGF7 nor FGF10, when used alone instead of FGF2, is capable of inducing differentiation

B3: FGF10: fibroblast growth factor tested alone instead of FGF2 (protein, UniProt O15520 38-208, looked up)
Fibroblast growth factor 10: QALGQDMVSPEATNSSSSSFSSPSSAGRHVRSYNHLQGDVRWRKLFSFTKYFLKIEKNGKVSGTKKENCPYSILEITSVEIGVVAVKAINSNYYLAMNKKGKLYGSKEFNNDCKLKERIEENGYNTYASFNWQHNGRQMYVALNGKGAPRRGQKTRRKNTSAHFLPMVVHS
[2]
  induction of differentiation towards PDX-1 positive pancreatic endoderm: neither FGF4, FGF7 nor FGF10, when used alone instead of FGF2, is capable of inducing differentiation
